This note sets out measurements from patent US8299056B2 (Signal Pharmaceuticals, LLC, priority 2008, dated 2012).

The target of one assay is T1, Syk (Homo sapiens, UniProt P43405).
T1 construct: purchased Carna Biosciences
The experiment in a line: Syk HTRF assay. The assay is classed as biochemical. The conditions noted are these: IC50 activity level, read-out: Activity Level. In short, it runs like this: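 HTRF kinase assay in HEPES pH 7.6 buffer with MgCl2, DTT and Triton X100; start mix of 87.5 μM ATP and 80 nM biotinylated peptide, 1 h at room temperature. EDTA stop, then Eu-anti-phosphotyrosine/streptavidin-DyLight 647 detection, read as 665/615 nm emission ratio.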
With `CNCc1nc2ccc(-c3cccc4nc(Nc5ccc(F)cc5)nn34)cc2[nH]1` [Example 437, N-(4-fluorophenyl)-5-(2-((methylamino)methyl)-1H-benzo[d]imidazol-6-yl)-[1,2,4]triazolo[1,5-a]pyridin-2-amine], the IC50 was in the range of 0.005 to 250 nM.
`Cn1ncc2cc(Nc3nc4cccc(NC5CCOCC5)n4n3)ccc21` [Example 551, N^2-(1-methyl-1H-indazol-5-yl)-N^5-(tetrahydro-2H-pyran-4-yl)-[1,2,4]triazolo[1,5-a]pyridine-2,5-diamine]: the IC50 lay within 0.005 to 250 nM.
For the molecule `O[C@@H]1CCC(Nc2cccc3nc(Nc4ccc(C(F)(F)F)cc4)nn23)C1` (stereo in doubt) [Example 420, (1R,3R)-3-(2-(4-(trifluoromethyl)phenylamino)-[1,2,4]triazolo[1,5-a]pyridin-5-ylamino)cyclopentanol], the IC50 is 250 to 500 nM.
Consider `O[C@H]1CC[C@@H](Nc2cccc3nc(Nc4ccccc4)nn23)CC1` [Example 471, cis-4-(2-(phenylamino)-[1,2,4]triazolo[1,5-a]pyridin-5-ylamino)cyclohexanol], for which the IC50 was 0.005 to 250 nM.
Regarding `NC(=O)c1ccc(Nc2nc3cccc(N[C@H]4CC[C@@H](O)CC4)n3n2)cc1` [Example 429, cis-4-(5-(4-hydroxycyclohexylamino)-[1,2,4]triazolo[1,5-a]pyridin-2-ylamino)benzamide], the IC50 is 0.005 to 250 nM.
As to `NC(=O)c1ccc(Nc2nc3cccc(N[C@H]4CCCNC4)n3n2)cc1` [Example 483, (S)-4-(5-(piperidin-3-ylamino)-[1,2,4]triazolo[1,5-a]pyridin-2-ylamino)benzamide], the IC50 lay within 0.005 to 250 nM.
As for `c1ccc(Nc2nc3cccc(-c4ccc5[nH]ncc5c4)n3n2)cc1` [Example 522, 5-(1H-indazol-5-yl)-N-phenyl-[1,2,4]triazolo[1,5-a]pyridin-2-amine], the IC50 is 500 to 1000 nM.
Regarding `C[C@@H](CO)Cc1cccc2nc(Nc3ccccc3)nn12` [Example 479, (R)-2-methyl-3-(2-(phenylamino)-[1,2,4]triazolo[1,5-a]pyridin-5-yl)propan-1-ol], the IC50 was 500 to 1000 nM.
With `Cn1ncc2cc(Nc3nc4cccc(CC5CCOCC5)n4n3)ccc21` [Example 550, N-(1-methyl-1H-indazol-5-yl)-5-((tetrahydro-2H-pyran-4-yl)methyl)-[1,2,4]triazolo[1,5-a]pyridin-2-amine], the IC50 was 0.005 to 250 nM.
For the molecule `NC(=O)[C@H]1CC[C@@H](Nc2cccc3nc(Nc4ccccc4)nn23)CC1` [Example 519, cis-4-(2-(phenylamino)-[1,2,4]triazolo[1,5-a]pyrridin-5-ylamino)cyclohexanecarboxamide], the IC50 lay in the range of 1000 to 10000 nM.
Turning to `FC(F)(F)c1ccc(Nc2nc3cccc(N[C@@H]4CCCNC4)n3n2)cc1` [Example 468, (R)-N^5-(piperidin-3-yl)-N^2-(4-(trifluoromethyl)phenyl)-[1,2,4]triazolo[1,5-a]pyridin-2,5-diamine], the IC50 lay in the range of 500 to 1000 nM.
Still for that read-out and setting: for `Nc1n[nH]c2cc(Nc3nc4cccc(NC5CCCNC5)n4n3)ccc12` (stereo in doubt) [Example 450, (R)-N^2-(3-amino-1H-indazol-6-yl)-N^5-(piperidin-3-yl)-[1,2,4]triazolo[1,5-a]pyridin-2,5-diamine] the value was 0.005 to 250 nM; for `c1ccc(Nc2nc3cccc(OC4CCCCC4)n3n2)cc1` [Example 510], 1000 to 10000 nM.

The same assay, now with this note: activity levels A-D, read-out: Activity Level (IC50 in the Syk HTRF assay).
Regarding `Cc1cc(Nc2nc3cccc(Cc4ccnc(O)c4)n3n2)ccc1F` [Example 219, 4-((2-(4-fluoro-3-methylphenylamino)-[1,2,4]triazolo[1,5-a]pyridin-5-yl)methyl)pyridin-2-ol], the IC50 is 0.005 to 250 nM.
For the molecule `CNC(=O)c1ccc(Nc2nc3cccc(CC(O)C4CCNCC4)n3n2)cc1` (centres unmarked) [Example 306, 4-(5-(2-hydroxy-2-(piperidin-4-yl)ethyl)-[1,2,4]triazolo[1,5-a]pyridin-2-ylamino)-N-methylbenzamide], the IC50 was 1000 to 10000 nM.
Turning to `COCc1n[nH]c2cc(Nc3nc4cccc(N[C@H]5CC[C@@H](O)CC5)n4n3)ccc12` [Example 231, cis-4-(2-(3-(methoxymethyl)-1H-indazol-6-ylamino)-[1,2,4]triazolo[1,5-a]pyridin-5-ylamino)cyclohexanol], the IC50 was in the range of 0.005 to 250 nM.
For the molecule `N#Cc1cccc(Nc2nc3cccc(N[C@H]4CC[C@@H](O)CC4)n3n2)c1` [Example 348, cis-3-(5-(4-hydroxycyclohexylamino)-[1,2,4]triazolo[1,5-a]pyridin-2-ylamino)benzonitrile], the IC50 was in the range of 250 to 500 nM.
Take `O[C@H]1CC[C@@H](Nc2cccc3nc(Nc4cccnc4F)nn23)CC1` [Example 322, cis-4-(2-(2-fluoropyridin-3-ylamino)-[1,2,4]triazolo[1,5-a]pyridin-5-ylamino)cyclohexanol]: the IC50 fell in the range of 1000 to 10000 nM.
For the molecule `O=C1CN(Cc2cccc3nc(Nc4ccc(C(F)(F)F)cc4)nn23)CCN1` [Example 388, 4-((2-(4-(trifluoromethyl)phenylamino)-[1,2,4]-triazolo[1,5-a]pyridin-5-yl)methyl)piperazin-2-one], the IC50 fell in the range of 0.005 to 250 nM.
As for `Cc1n[nH]c2cc(Nc3nc4cccc(N[C@H]5CC[C@H](O)CC5)n4n3)ccc12` (stereo in doubt) [Example 201, trans-4-(2-(3-methyl-1H-indazol-6-ylamino)-[1,2,4]triazolo[1,5-a]pyridin-5-ylamino)cyclohexanol], the IC50 fell in the range of 0.005 to 250 nM.
Regarding `O[C@@H]1CCC[C@@H](Nc2cccc3nc(Nc4ccc(C(F)(F)F)cc4)nn23)C1` (single isomer, unassigned; enantiomer 1) [Example 225, trans-3-(2-(4-(trifluoromethyl)phenylamino)-[1,2,4]triazolo[1,5-a]pyridin-5-ylamino)cyclohexanol (enantiomer 1)], the IC50 is 0.005 to 250 nM.
As to `O[C@H]1CCCC[C@@H]1Nc1cccc2nc(Nc3ccc(C(F)(F)F)cc3)nn12` [Example 334, (1S,2S)-2-(2-(4-(trifluoromethyl)phenylamino)-[1,2,4]triazolo[1,5-a]pyridin-5-ylamino)cyclohexanol], the IC50 is 1000 to 10000 nM.
As for `N#Cc1ccc(Nc2nc3cccc(N[C@H]4CC[C@@H](O)CC4)n3n2)cn1` [Example 381], the IC50 is 1000 to 10000 nM.
Same read-out and setting: the figure for `CC(c1cc[nH]c(=O)c1)c1cccc2nc(Nc3ccc(C(F)(F)F)cc3)nn12` (centres unmarked) [Example 211, 4-(1-(2-(4-(trifluoromethyl)phenylamino)-[1,2,4]triazolo[1,5-a]pyridin-5-yl)ethyl)pyridin-2(1H)-one] is 0.005 to 250 nM; for `O=C1NCCc2cc(Nc3nc4cccc(N[C@H]5CC[C@@H](O)CC5)n4n3)ccc21` [Example 203, cis-6-(5-(4-hydroxycyclohexylamino)-[1,2,4]triazolo[1,5-a]pyridin-2-ylamino)-3,4-dihydroisoquinolin-1(2H)-one] it is 0.005 to 250 nM.

Still in this assay, the particulars now being: read-out: Activity Level (Syk HTRF assay IC50).
For the molecule `c1ccc(-c2cccc3nc(Nc4ccc5c(NC6CCNCC6)n[nH]c5c4)nn23)cc1` [compound 23], the IC50 lay within 0.005 to 250 nM.
`Cc1n[nH]c2cc(Nc3nc4cccc(NC5CCOC5)n4n3)ccc12` (stereo in doubt) [Example 167, (R)-N^2-(3-methyl-1H-indazol-6-yl)-N^5-(tetrahydrofuran-3-yl)-[1,2,4]triazolo[1,5-a]pyridin-2,5-diamine]: the IC50 lay in the range of 0.005 to 250 nM.
For `CC1(C)C(=O)Nc2cc(Nc3nc4cccc(N[C@@H]5CCCNC5)n4n3)ccc21` [compound 131, (R)-3,3-dimethyl-6-(5-(piperidin-3-ylamino)-[1,2,4]triazolo[1,5-a]pyridin-2-ylamino)indolin-2-one], the IC50 is 0.005 to 250 nM.
Same read-out and setting: for `c1ccc(-c2cccc3nc(Nc4ccc5c(c4)CNC5)nn23)cc1` [compound 53] the value was 0.005 to 250 nM.
The same measure, in the same setting: the figure for `Cc1cc(Nc2nc3cccc(N[C@H]4CC[C@@H](O)CC4)n3n2)cnc1N1CCOCC1` [compound 105, cis-4-(2-(5-methyl-6-morpholinopyridin-3-ylamino)-[1,2,4]triazolo[1,5-a]pyridin-5-ylamino)cyclohexanol] is 0.005 to 250 nM; for `CNC(=O)c1ccc(Nc2nc3cccc(-c4cc(Cl)cc(CCCN)c4)n3n2)cc1` [compound 6, 4-(5-(3-(3-aminopropyl)-5-chlorophenyl)-[1,2,4]triazolo-[1,5-a]pyridin-2-ylamino)-N-methylbenzamide] it is 0.005 to 250 nM.
`Cc1cc(Nc2nc3cccc(NC4CCOCC4)n3n2)cc2[nH]nc(C)c12` [compound 108]: the IC50 was 0.005 to 250 nM.
Regarding `COCc1nc2ccc(Nc3nc4cccc(CC5CCOCC5)n4n3)cc2[nH]1` [compound 132, N-(2-(methoxymethyl)-1H-benzo[d]imidazol-6-yl)-5-((tetrahydro-2H-pyran-4-yl)methyl)-[1,2,4]triazolo[1,5-a]pyridin-2-amine], the IC50 was 0.005 to 250 nM.
In the case of `Cc1n[nH]c2ccc(Nc3nc4cccc(N[C@H]5CC[C@H](O)CC5)n4n3)cc12` [compound 127, trans-4-(2-(3-methyl-1H-indazol-5-ylamino)-[1,2,4]triazolo[1,5-a]pyridin-5-ylamino)cyclohexanol], the IC50 lay within 0.005 to 250 nM.
Turning to `Cn1ncc2ccc(Nc3nc4cccc(NC5CCOCC5)n4n3)cc21` [Example 161, N^2-(1-methyl-1H-indazol-6-yl)-N^5-(tetrahydro-2H-pyran-4-yl)-[1,2,4]triazolo[1,5-a]pyridin-2,5-diamine], the IC50 was 0.005 to 250 nM.
Take `Oc1cccc(-c2cccc3nc(Nc4ccc5cn[nH]c5c4)nn23)c1` [compound 27, 3-(2-(1H-indazol-6-ylamino)-[1,2,4]triazolo[1,5-a]pyridin-5-yl)phenol]: the IC50 fell in the range of 0.005 to 250 nM.
For `NC(=O)c1cccc(Nc2nc3cccc(-c4ccccc4)n3n2)c1` [compound 67, 3-(5-phenyl-[1,2,4]triazolo[1,5-a]pyridin-2-ylamino)benzamide], the IC50 lay in the range of 500 to 1000 nM.
Same read-out and setting: the figure for `COCc1nc2ccc(Nc3nc4cccc(N[C@H]5CC[C@@H](O)CC5)n4n3)cc2[nH]1` [Example 196, cis-4-(2-(2-(methoxymethyl)-1H-benzo[d]imidazol-6-ylamino)-[1,2,4]triazolo[1,5-a]pyridin-5-ylamino)cyclohexyl] is 0.005 to 250 nM.
